Patent publication US6897203B2, “Polysaccharidic esters of retinoic acid” (priority 2001, dated 2005)

Key:
[1] = system: P19 cells, embryonal pluripotent murine teratocarcinoma cell line; details: cultured P19 cells; McBurney et al., Nature 1982; cited from earlier work
[2] = system: P19 cells, embryonal pluripotent murine teratocarcinoma cell line; details: after 4 days of treatment, RT-PCR and RNase protection; for prodynorphin gene expression: P19 indifferentiated cells in suspension; for gene induction of the GATA-4 and Nkx-2.5 genes: P19 indifferentiated cells, follows the prodynorphin increase
Experimental: The experiments were carried out on P19 cells, embryonal pluripotent murine teratocarcinoma cell line (European Collection of Cell Cultures, UK). These cultured cells indifferentiately proliferate but can be transformed into several cell phenotypes in the presence of differentiating agents, thus selectively summarising the first molecular events that take place during the embryonal growth. […] P19 cells are cultivated in a suspension in alpha-mem medium in 60 mm Petri dishes, either in the absence or in the presence of the hyaluronan esters of the invention. After 4 days of treatment, the total RNA was extracted according to the procedure described by Chomczynsky and Sacchi (Chomczynsky, P., N. Sacchi, Anal. Biochem. 162: 156-159, 1987) and the expression of specific transcripts was evaluated by RT-PCR and RNase protection.

In the case of `C[S+](C)[O-]` [DMSO, dimethylsulphoxide], the “differentiation phenotype of P19 cells in the presence of a differentiating agent” value [1] is given as “turn into myocardial cells supplied with spontaneous contractile activity”.
For `CC(C=CC1=C(C)CCCC1(C)C)=CC=CC(C)=CC(=O)O` [retinoic acid, 3,7-dimethyl-9-(2,6,6-trimethyl-1-cyclohexene-1-yl)-2,4,6,8-nonatetraenoic acid], the “differentiation phenotype of P19 cells in the presence of a differentiating agent” value [1] is given as “turn into neuronal cells”.
In the case of “Ester of Hyaluronan with Trans-Retinoic Acid [Example 4]”, the prodynorphin gene expression [2] is reported as “marked increase” and the “gene induction of the GATA-4 and Nkx-2.5 genes” value [2] is reported as “gene induction”.
With “Hyaluronan Ester with Trans-Retinoic Acid [Example 3]” the prodynorphin gene expression [2] was “marked increase” and the “gene induction of the GATA-4 and Nkx-2.5 genes” value [2] was “gene induction”.
